From patent publication US5712161A, “Method for culturing animal cells in collagen drops on a support” (Nitta Gelatin Inc., priority 1993, dated 1998)
Read-outs that look alike come from different tables or passages of the source.

Experiments:
[1] = system: human breast cancer cells (surgical sample); assay: Anticancer agent sensitivity, FDA stain, volume by image analysis; details: 24 h agent contact; for FDA volume: image analysis; for Effect/control (FDA volume): ratio to control = 1.00
Procedure: (§1) Using a surgical sample as obtained from a human breast cancer patient as the starting material, it was treated according to the order as shown in the flow sheet.
(§2) The embedded culture was carried out as follows: 1 volume of 10-fold concentrated Ham's F12 culture solution (sodium bicarbonate-free) and 1 volume of a reconstituting buffer solution (50 mM NaOH solution containing 260 mM sodium bicarbonate and 200 mM-HEPES) were added to 8 volumes of Cellmatrix Type I-A (0.3% acid-soluble Type-I collagen solution: product of Nitta Gelatin Inc.); the breast cancer cells and the like as obtained in the above-mentioned preliminary culture and collection steps were added and well mixed into the resultant mixture; the final concentration was adjusted to 5×10^4 cells/ml; and the resultant mixture was kept in ice.
(§3) A 0.5-ml portion of the culture solution containing an anticancer agent was superposed on the globular collagen gel in which the cancer cells were embedded and which was obtained in the above-mentioned embedding step, and the cancer cells were allowed to be in contacted with the anticancer agent by keeping them in a 5% carbon dioxide incubator at 37° C. for 24 hours. The following six anticancer agents were used: MMC (mitomycin C), CDDP (cisplatin), VDS (vindesine), VP-16, 5-FU (5fluorouracil) and ADM (adriamycin).
(§4) Then, the culture solution containing the anticancer agent was removed by suction, 0.5 ml of a culture solution free from an anticancer agent was instead added, the resultant mixture was shaken in a 5% carbon dioxide incubator, thus washing the globular collagen gel. This procedure was repeated at least every 10 minutes for a total of 3 times, whereby the anticancer agent was removed from the globular collagen gel.
(§5) After the above-mentioned agent contact step, 0.5 ml of a culture solution was added, and the culture was effected at 37° C. in a 5% carbon dioxide incubator for 7-14 days. The culture solution was exchanged every 1-2 days.
(§6) The culture solution for the washing was free from sodium bicarbonate and cooled to 4° C. before use.
(§7) The culture container was then transferred to a cooled dark box. The culture solution was exchanged with a culture solution, to which an FDA-staining agent (FDA concentration: 2-10 μg/ml) which reacts due to esterase activity in live cells had been added, and was shaken for one hour in a refrigerator (10° C.), thus reacting the FDA with the cells.
(§8) The fluorescently colored cells were quantified by image analysis. The image for the image analysis was created using, an inverted fluorescent microscope, a sample holder cooling apparatus (in-house product), an excitatory light irradiation control apparatus, a sample holder driving apparatus and a high-sensitivity cooled CCD camera. The volume was measured on the basis of this image using an image analyzer according to a conventional method. The intensity of the excitatory light was 1×10^3 lux.sec on the sample holder.

[2] = system: human breast cancer cells (surgical sample); assay: Anticancer agent sensitivity, FDA stain, fluorescence intensity on image; details: 24 h agent contact; for FDA image fluorescence units: fluorescence intensity on image; for Effect/control (FDA image fluorescence): ratio to control = 1.00
Procedure: as §2
(§9) Next, this collagen mixture solution was placed onto a 24-well multiplate at 30 μl/well using a micropipette and gelated to prepare globular collagen gels (for details see Example 1G).
as §3, §4
(§10) After the above-mentioned agent contact step, 0.5 ml of a culture solution was added, and the culture was effected at 37° C. in a 5% carbon dioxide incubator for 7-14 days. The culture solution was exchanged every 1-2 days. The proliferation culture solution as used was a culture solution containing a DF culture solution+10% FBS+5μg/ml insulin (product of Sigma Chemical Co.)+10 ng/ml EGF (EGF: epidermal growth factor, product of Becton Dickinson Labware)+20 ng/ml hydrocortisone (product of Sigma Chemical Co.) (see Example 1H).
(§11) The culture solution was exchanged with a culture solution, to which an FDA-staining agent (FDA concentration: 2-10 μg/ml) which reacts due to esterase activity in live cells had been added, and was shaken for one hour in a refrigerator (10° C.), thus reacting the FDA with the cells.
as §8
(§12) In addition to the conventional known volume measurement by image analysis, the viability of the cells was also measured by quantifying the fluorescence intensity on the image.

[3] = system: human breast cancer cells (surgical sample); assay: Anticancer agent sensitivity, Neutral Red stain, volume by image analysis; details: 24 h agent contact; for Neutral Red volume: image analysis of fixed, dried gel; for Effect/control (Neutral Red volume): ratio to control = 1.00
Procedure: as §1, §2, §9, §3, §4, §10
(§13) The culture solution for the washing was a DME culture solution.
(§14) The culture solution was exchanged with a culture solution to which an NR-staining agent had been added (NR concentration: 25-50 μg/ml), and shaking was effected for 2 hours in a carbon dioxide incubator, thus incorporating the NR into the cells.
(§15) After the stain, the culture solution containing the NR was exchanged with PBS (Phosphate Buffered Saline), and the sample was allowed to stand stationary in a room for 10 minutes, thus removing the NR remaining outside of the cells.
(§16) Next, the PBS was exchanged with neutral 10% formalin, and the sample was allowed to stand stationary in a room for 40 minutes, thus fixing the cells and the NR as incorporated into the cells.
(§17) The globular collagen gel to which the cells had been fixed was immersed in distilled water for 10 minutes, thus removing the salts. When the globular collagen gel which had been immersed in the distilled water was air-dried at room temperature, whereby a flat dried product was formed.
(§18) At this time, the cultured cells were fixed in the dried collagen gel while containing the NR.
(§19) The volume of the fixed cells was measured using an image analyzer in the same manner as mentioned above.

[4] = system: human breast cancer cells (surgical sample); assay: Anticancer agent sensitivity, FDA spectrophotofluorimetry of extracted dye; details: 24 h agent contact; for FDA spectrophotofluorimetry fluorescence units: excitation 490 nm, detection 520 nm; for Effect/control (FDA spectrophotofluorimetry): ratio to control = 1.00
Procedure: as §2, §9, §3, §4, §10, §7
(§20) The cultured cell sample as subjected to the fluorescent stain was washed for one hour with a fresh cooled culture solution, thus removing the extracellular fluorescent reagent. The culture solution as used for the washing was a DME culture solution. This solution was further exchanged with a culture solution of 37° C., shaking was performed for one hour in an incubator at 37° C., and the FDA which had reacted in the cells was extracted into the solution. The culture solution was separated off and measured using a fluorospectrophotometer, with an excitatory wavelength of 490 nm and a detection wavelength of 520 nm.

[5] = system: human breast cancer cells (surgical sample); assay: Anticancer agent sensitivity, globular collagen gel-embedded culture, Alamar Blue fluorescence; details: 24 h agent contact; for AlamarBlue fluorescence intensity: excitation 560 nm, detection 590 nm; for Effect/control (AlamarBlue fluorescence): ratio to control = 1.00
Procedure: as §1, §2
(§21) A 0.5-ml portion of the culture solution containing an anticancer agent was superposed on the globular collagen gel in which the cancer cells were embedded and which was obtained in the above-mentioned embedding step, and the cancer cells were allowed to be in contacted with the anticancer agent by keeping them in a 5% carbon dioxide incubator at 37° C. for 24 hours.
as §4, §5
(§22) For the measurement, an AB coloring agent was used to cause a color reaction by the reductive activity of the cells.
(§23) The AB coloring agent was added in an amount of 1/50-1/10 relative to the culture solution, and the reaction was conducted for 6 hours in a carbon dioxide incubator.
(§24) The same culture solution was also measured using a fluorospectrophotometer, with an excitatory wavelength of 560 nm and a detection wavelength of 590 nm.

[6] = system: human breast cancer cells (surgical sample); assay: Anticancer agent sensitivity, globular collagen gel-embedded culture, Alamar Blue (AB) absorbance; details: 24 h agent contact, 7-14 days culture; for AlamarBlue absorbance: 570 nm, reference 600 nm; for Effect/control (AlamarBlue absorbance): ratio to control = 1.00
Procedure: (§25) The capsule, fat, etc. were removed from the tissue containing the breast cancer using scissors and forceps under aseptic conditions, and then sliced with a razor.
(§26) The live tumor cells as obtained by the above-mentioned preliminary culture and collection steps were embedded into a globular collagen gel and cultured.
as §2, §3, §4, §5
(§27) The viability of the cells in the sample as obtained by the culture was measured.
as §22, §23
(§28) After the reaction, the culture solution was separated off, and the absorbance of the culture solution was measured using a spectrophotometer. The measurement of the absorbance was performed at 570 nm with a reference wavelength of 600 nm.

[7] = system: breast cancer cells (surgical sample from a human cancer patient); assay: Anticancer agent sensitivity, NR extraction method, absorbance; assay type: cell-based; details: for Effect/control (Neutral Red absorbance): control = 1.00
Procedure: A test was conducted in the same way as in Example 1, but the image analysis of live cells as stained with the NR was not carried out, and the NR was instead extracted from the live cells, thus measuring the absorbance. A surgical sample (breast cancer) as obtained from a human cancer patient was used as the starting material, and the test was carried out according to the same procedures and methods as in Example 1, except for the procedures of the formalin-fixation, the drying and the image analysis in the pigment stain analysis step. The NR as incorporated into live cells was extracted by dissolving the collagen gel with collagenase in the culture container and then adding an NR extractant, and the absorbance of the resultant extract was measured.

[8] = system: breast cancer cells (surgical sample from a human cancer patient); assay: Anticancer agent sensitivity, MTT assay method, formazane absorbance; assay type: cell-based; details: for Effect/control (formazane absorbance): control = 1.00
Procedure: A test was conducted in the same way as in Example 1, but an MTT reagent was substituted for the AB coloring agent in the colorimetric analysis step. A surgical sample (breast cancer) as obtained from a human cancer patient was used as the starting material, and the test was carried out according to the same procedures and methods as in Example 1, except for the procedures subsequent to the colorimetric analysis step. The formazane as deposited in live cells was extracted by dissolving the collagen gel with collagenase in the culture container and then adding a formazane extractant, and the absorbance of the resultant extract was measured, when the deposited fine crystal of formazane was held in the collagen gel, such that results were obtained with good accuracy.

[9] = system: human breast cancer cells (surgical sample); details: primary breast cancer cells, 24 h
Procedure: as §25, §26, §2, §3, §4, §5, §27, §22, §23, §28

[10] = system: human breast cancer cells (surgical sample); details: primary breast cancer cells, 24 h; remark: listed apart in the source
Procedure: as §1, §2, §21, §4, §5, §22, §23, §24

[11] = system: human breast cancer cells (surgical sample); details: primary breast cancer cells, 24 h; remark: listed apart in the source
Procedure: as §1, §2, §3, §4, §5, §6, §7, §8

[12] = system: human breast cancer cells (surgical sample); details: primary breast cancer cells, 24 h; remark: listed apart in the source
Procedure: as §2, §9, §3, §4, §10, §11, §8, §12

[13] = system: human breast cancer cells (surgical sample); details: primary breast cancer cells, 24 h; remark: listed apart in the source
Procedure: as §2, §9, §3, §4, §10, §7, §20

[14] = system: human breast cancer cells (surgical sample); details: primary breast cancer cells, 24 h; remark: listed apart in the source
Procedure: as §1, §2, §9, §3, §4, §10, §13, §14, §15, §16, §17, §18, §19

[15] = system: fibroblasts in human lung cancer and human breast cancer samples; assay: Fibroblast proliferation in preliminary culture, microscopic observation; assay type: cell-based; details: 10 μg/ml dextran sulfate in serum culture solution, 7 days
Procedure: Thus, an investigation was made with regard to a serum-free culture solution (DF culture solution+5 μg/ml insulin+10 ng/ml EGF+8 ng/ml sodium selenite+10 μg/ml transferrin+5 mg/ml BSA) (BSA: bovine serum albumin) and a serum culture solution containing dextran sulfate (DF culture solution+10% FBS+insulin+EGF+hydrocortisone 10 μg/ml dextran sulfate).
The experimental materials used were the 14 cases of human lung cancer and 12 cases of human breast cancer which had adhered to the bottom of the culture dishes in Example 1A above as controls, and the above-mentioned culture solutions (the serum-free culture solution and the dextran sulfate-containing serum culture solution) were used to culture cells for 7 days.

[16] = system: rabbit-oriented vascular endothelial cells; assay: Proliferation shape of vascular endothelial cells around globular collagen gel containing TGF-β; assay type: cell-based
Excerpt: The procedure of Example 23 was repealed, but TGF-β (a transformation growth factor) was substituted for the cells of the group A, and rabbit-oriented vascular endothelial cells for the cells of the group B, and the following modifications were made. […] In FIG. 7, the transformation growth factor 70 is contained in the globular collagen gel 20a. A collagen gel 80a in which the rabbit-oriented vascular endothelial cells 50d were embedded was placed in the layered form into the inside of the multiplate 10, such that the globular collagen gel 20a was covered with the collagen gel 80a. The test was carried out in the same way as in Example 22 except for the components as contained in each collagen gel and for the placement of the gels. In addition, the collagen gel 80a was evaluated by microscopy.
As a result, different proliferation shapes of the vascular endothelial cells were observed depending on the distance from the surface of the globular collagen gel 20a.

[17] = 5-FU concentration 0.1 (Cmax = 1)
[18] = 5-FU concentration 0.2 (Cmax = 1)
[19] = 5-FU concentration 0.4 (Cmax = 1)
[20] = 5-FU concentration 0.6 (Cmax = 1)
[21] = 5-FU concentration 0.8 (Cmax = 1)
[22] = 5-FU concentration 1.0 (Cmax = 1)

`[NH2][Pt]([NH2])([Cl])[Cl]` [CDDP, cisplatin] was tested, and the FDA volume [1] was 5.68 10^7 μm^3, the “Effect/control (FDA volume)” value [1] was 0.37 and the “FDA image fluorescence units” value [2] was 3.43 10^1. For the same molecule, the “Effect/control (FDA image fluorescence)” value [2] was 0.45, the “Neutral Red volume” value [3] was 6.25 10^7 μm^3 and the “Effect/control (Neutral Red volume)” value [3] was 0.37. For the same molecule, the “FDA spectrophotofluorimetry fluorescence units” value [4] was 3.50 10^1, the “Effect/control (FDA spectrophotofluorimetry)” value [4] was 0.47 and the AlamarBlue fluorescence intensity [5] was 2.66 10^2. The “Effect/control (AlamarBlue fluorescence)” value [5] was 0.38, the AlamarBlue absorbance [6] was 0.40 and the “Effect/control (AlamarBlue absorbance)” value [6] was 0.42.

With `COc1cccc2c1C(=O)c1c(O)c3c(c(O)c1C2=O)C[C@@](O)(C(=O)CO)C[C@@H]3O[C@H]1C[C@H](N)[C@H](O)[C@H](C)O1` [ADM, adriamycin] the FDA volume [1] was 10.93 10^7 μm^3, the “Effect/control (FDA volume)” value [1] was 0.72 and the “FDA image fluorescence units” value [2] was 5.35 10^1. For the same molecule, the “Effect/control (FDA image fluorescence)” value [2] was 0.70, the “Neutral Red volume” value [3] was 12.26 10^7 μm^3 and the “Effect/control (Neutral Red volume)” value [3] was 0.73. The “FDA spectrophotofluorimetry fluorescence units” value [4] was 5.33 10^1, the “Effect/control (FDA spectrophotofluorimetry)” value [4] was 0.72 and the AlamarBlue fluorescence intensity [5] was 4.81 10^2. The “Effect/control (AlamarBlue fluorescence)” value [5] was 0.68, the AlamarBlue absorbance [6] was 0.65 and the “Effect/control (AlamarBlue absorbance)” value [6] was 0.68.

In the case of `O=c1[nH]cc(F)c(=O)[nH]1` [5-FU, 5fluorouracil], the “Neutral Red absorbance” value [7, 17] is reported as 0.307, the “Effect/control (Neutral Red absorbance)” value [7, 17] is reported as 0.88 and the “Neutral Red absorbance” value [7, 18] is reported as 0.206. The “Effect/control (Neutral Red absorbance)” value [7, 18] was 0.59, the “Neutral Red absorbance” value [7, 19] was 0.123 and the “Effect/control (Neutral Red absorbance)” value [7, 19] was 0.35. For the same molecule, the “Neutral Red absorbance” value [7, 20] was 0.100, the “Effect/control (Neutral Red absorbance)” value [7, 20] was 0.29 and the “Neutral Red absorbance” value [7, 21] was 0.079. The “Effect/control (Neutral Red absorbance)” value [7, 21] was 0.23, the “Neutral Red absorbance” value [7, 22] was 0.072 and the “Effect/control (Neutral Red absorbance)” value [7, 22] was 0.21. For the same molecule, the Formazane absorbance [8, 17] was 1.036, the “Effect/control (formazane absorbance)” value [8, 17] was 0.88 and the Formazane absorbance [8, 18] was 0.774. For the same molecule, the “Effect/control (formazane absorbance)” value [8, 18] was 0.66, the Formazane absorbance [8, 19] was 0.599 and the “Effect/control (formazane absorbance)” value [8, 19] was 0.51. The Formazane absorbance [8, 20] was 0.515, the “Effect/control (formazane absorbance)” value [8, 20] was 0.44 and the Formazane absorbance [8, 21] was 0.450. For the same molecule, the “Effect/control (formazane absorbance)” value [8, 21] was 0.38, the Formazane absorbance [8, 22] was 0.429 and the “Effect/control (formazane absorbance)” value [8, 22] was 0.37. The “Effect/control (AlamarBlue absorbance)” value [9] was 0.73, the “Effect/control (AlamarBlue fluorescence)” value [10] was 0.71 and the “Effect/control (FDA volume)” value [11] was 0.65. For the same molecule, the “Effect/control (FDA image fluorescence)” value [12] was 0.62, the “Effect/control (FDA spectrophotofluorimetry)” value [13] was 0.63 and the “Effect/control (Neutral Red volume)” value [14] was 0.64. For the same molecule, the FDA volume [1] was 9.89 10^7 μm^3, the “FDA image fluorescence units” value [2] was 4.77 10^1 and the “Neutral Red volume” value [3] was 10.76 10^7 μm^3. The “FDA spectrophotofluorimetry fluorescence units” value [4] was 4.68 10^1, the AlamarBlue fluorescence intensity [5] was 5.07 10^2 and the AlamarBlue absorbance [6] was 0.69.

With `CC[C@]1(O)C[C@@H]2CN(CCc3c([nH]c4ccccc34)[C@@](C(=O)OC)(c3cc4c(cc3OC)N(C)[C@H]3[C@@](O)(C(N)=O)[C@H](O)[C@]5(CC)C=CCN6CC[C@]43[C@@H]65)C2)C1` [VDS, vindesine] the “Effect/control (AlamarBlue absorbance)” value [9] was 0.73, the “Effect/control (AlamarBlue fluorescence)” value [10] was 0.72 and the “Effect/control (FDA volume)” value [11] was 0.61. For the same molecule, the “Effect/control (FDA image fluorescence)” value [12] was 0.62, the “Effect/control (FDA spectrophotofluorimetry)” value [13] was 0.61 and the “Effect/control (Neutral Red volume)” value [14] was 0.60. The FDA volume [1] was 9.25 10^7 μm^3, the “FDA image fluorescence units” value [2] was 4.74 10^1 and the “Neutral Red volume” value [3] was 10.10 10^7 μm^3. For the same molecule, the “FDA spectrophotofluorimetry fluorescence units” value [4] was 4.52 10^1, the AlamarBlue fluorescence intensity [5] was 5.13 10^2 and the AlamarBlue absorbance [6] was 0.69.

`COc1cc(C2c3cc4c(cc3C(OC3OC5COC(C)OC5C(O)C3O)C3COC(=O)C23)OCO4)cc(OC)c1O` (stereo not shown) [VP-16] was tested, and the “Effect/control (FDA volume)” value [1] was 0.93, the “FDA image fluorescence units” value [2] was 7.23 10^1 and the “Effect/control (FDA image fluorescence)” value [2] was 0.94. The “Neutral Red volume” value [3] was 15.54 10^7 μm^3, the “Effect/control (Neutral Red volume)” value [3] was 0.92 and the “FDA spectrophotofluorimetry fluorescence units” value [4] was 6.90 10^1. The “Effect/control (FDA spectrophotofluorimetry)” value [4] was 0.93, the AlamarBlue fluorescence intensity [5] was 6.64 10^2 and the “Effect/control (AlamarBlue fluorescence)” value [5] was 0.94. For the same molecule, the AlamarBlue absorbance [6] was 0,87 and the “Effect/control (AlamarBlue absorbance)” value [6] was 0.91.

For `CO[C@@]12[C@H](COC(N)=O)C3=C(C(=O)C(C)=C(N)C3=O)N1C[C@@H]1N[C@@H]12` [MMC, mitomycin C], the “Effect/control (AlamarBlue absorbance)” value [9] was 0.42, the “Effect/control (AlamarBlue fluorescence)” value [10] was 0.46 and the “Effect/control (FDA volume)” value [11] was 0.33. The “Effect/control (FDA image fluorescence)” value [12] was 0.42, the “Effect/control (FDA spectrophotofluorimetry)” value [13] was 0.46 and the “Effect/control (Neutral Red volume)” value [14] was 0.31. The FDA volume [1] was 5.07 10^7 μm^3, the “FDA image fluorescence units” value [2] was 3.26 10^1 and the “Neutral Red volume” value [3] was 5.19 10^7 μm^3. For the same molecule, the “FDA spectrophotofluorimetry fluorescence units” value [4] was 3.37 10^1, the AlamarBlue fluorescence intensity [5] was 3.24 10^2 and the AlamarBlue absorbance [6] was 0.40.

With dextran sulfate the “proliferation of the fibroblasts” value [15] was “partially suppressed”.

With TGF-β the “Proliferation state of vascular endothelial cells” value (from here on “Proliferation state”) ([16]; 0 mm from surface of gel 20a) was “lump”, the “Proliferation state” value ([16]; 1 mm from surface of gel 20a) was “tree” and the “Proliferation state” value ([16]; 3 mm from surface of gel 20a) was “lump”. For the same molecule, the “Proliferation state” value ([16]; 4 mm from surface of gel 20a) was “lump”.
